Laboratory results reported in patent US12594276B2, “Inhibitors of human immunodeficiency virus replication” (ViiV Healthcare UK (No.5) Limited, priority 2024, dated 2026).
pEC50: −log10 of the molar value.

Tests used:
[1] = Compound cytotoxicity, XTT-based colorimetric assay; type: cell-based; conditions: human; uninfected MT2 cells, day 4, XTT; read-out: CC50
Outline: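 Uninfected MT2 cells were treated with compound under the same protocol as the antiviral assay. Viability was read on day 4 with an XTT colorimetric assay, from which CC50 values were derived.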

[2] = system: recombinant NL4-3 virus (nef section replaced with Renilla luciferase gene) in MT-2 cells; assay: HIV cell culture assay (antiviral activity, luciferase readout); type: cell-based; conditions: Renilla, NL43, MT-2 cells infected for 4-5 days with recombinant NL4-3 Renilla luciferase virus
Outline: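 EC50 was derived by median-effect fitting of Renilla luciferase signal from MT-2 cells. These cells were infected for 4–5 days with NL4-3 reporter virus (nef partly replaced by luciferase; made in 293T cells) in the presence of serially diluted compound. Activity was quantified with a live-cell luciferase substrate.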

Structure (SMILES): Cc1cc(C2(F)CCC(F)(F)CC2)nc2nc([C@H](Cc3cc(F)cc(F)c3)NC(=O)Cn3nc(C(F)F)c4c3C(F)(F)[C@@H]3C[C@H]43)n(-c3ccc(Cl)c4c(NS(C)(=O)=O)nn([C@H](C)CN5C[C@H](F)C[C@H](F)C5)c34)c(=O)c12 (atropisomer, axis not shown; (P)) [Example 711, N-[(1S)-1-[(3P)-3-{4-chloro-1-[(2R)-1-[(3R,5S)-3,5-difluoropiperidin-1-yl]propan-2-yl]-3-methanesulfonamido-1H-indazol-7-yl}-5-methyl-4-oxo-7-(1,4,4-trifluorocyclohexyl)-3H,4H-pyrido[2,3-d]pyrimidin-2-yl]-2-(3,5-difluorophenyl)ethyl]-2-[(2S,4R)-9-(difluoromethyl)-5,5-difluoro-7,8-diazatricyclo[4.3.0.0^2,^4]nona-1(6),8-dien-7-yl]acetamide]
- CC50 at 4 days [1]: > 20 nM
- pEC50 [2]: 10.59

Structure (SMILES): C[C@H](CN1C[C@H](F)C[C@H](F)C1)n1nc(NS(C)(=O)=O)c2c(Cl)ccc(-n3c([C@H](Cc4cc(F)cc(F)c4)NC(=O)Cn4nc(C(F)F)c5c4C(F)(F)[C@@H]4C[C@H]54)nc4nc(C5CCC(F)(F)CC5)cc(C5CC5)c4c3=O)c21 (atropisomer, axis not shown; (P)) [Example 716, N-[(1S)-1-[(3P)-3-{4-chloro-1-[(2R)-1-[(3R,5S)-3,5-difluoropiperidin-1-yl]propan-2-yl]-3-methanesulfonamido-1H-indazol-7-yl}-5-cyclopropyl-7-(4,4-difluorocyclohexyl)-4-oxo-3H,4H-pyrido[2,3-d]pyrimidin-2-yl]-2-(3,5-difluorophenyl)ethyl]-2-[(2S,4R)-9-(difluoromethyl)-5,5-difluoro-7,8-diazatricyclo[4.3.0.0^2,^4]nona-1(6),8-dien-7-yl]acetamide]
- CC50 at 4 days [1]: > 20 nM
- pEC50 [2]: 10.46

Structure (SMILES): Cc1cc(C2(F)CCC(F)(F)CC2)nc2nc([C@H](Cc3cc(F)cc(F)c3)NC(=O)Cn3nc(C(F)F)c4c3C(F)(F)[C@@H]3C[C@H]43)n(-c3ccc(Cl)c4c(NS(C)(=O)=O)nn(C[C@H](C)N5CC(C)(C)OC(C)(C)C5)c34)c(=O)c12 (atropisomer, axis not shown; (P)) [Example 717, N-[(1S)-1-[(3P)-3-{4-chloro-3-methanesulfonamido-1-[(2S)-2-(2,2,6,6-tetramethylmorpholin-4-yl)propyl]-1H-indazol-7-yl}-5-methyl-4-oxo-7-(1,4,4-trifluorocyclohexyl)-3H,4H-pyrido[2,3-d]pyrimidin-2-yl]-2-(3,5-difluorophenyl)ethyl]-2-[(2S,4R)-9-(difluoromethyl)-5,5-difluoro-7,8-diazatricyclo[4.3.0.0^2,^4]nona-1(6),8-dien-7-yl]acetamide]
- CC50 at 4 days [1]: > 20 nM
- pEC50 [2]: 10.49

Structure (SMILES): Cc1cc(C2(F)CCC(F)(F)CC2)nc2nc([C@H](Cc3cc(F)cc(F)c3)NC(=O)Cn3nc(C(F)F)c4c3C(F)(F)[C@@H]3C[C@H]43)n(-c3ccc(Cl)c4c(NS(C)(=O)=O)nn(C[C@@H](C)N5C[C@@H](C)O[C@@H](C)C5)c34)c(=O)c12 (atropisomer, axis not shown; (P)) [Example 720, N-[(1S)-1-[(3P)-3-{4-chloro-1-[(2R)-2-[(2R,6S)-2,6-dimethylmorpholin-4-yl]propyl]-3-methanesulfonamido-1H-indazol-7-yl}-5-methyl-4-oxo-7-(1,4,4-trifluorocyclohexyl)-3H,4H-pyrido[2,3-d]pyrimidin-2-yl]-2-(3,5-difluorophenyl)ethyl]-2-[(2S,4R)-9-(difluoromethyl)-5,5-difluoro-7,8-diazatricyclo[4.3.0.0^2,^4]nona-1(6),8-dien-7-yl]acetamide]
- CC50 at 4 days [1]: > 20 nM
- pEC50 [2]: 11.15

Structure (SMILES): Cc1cc(C2(F)CCC(F)(F)CC2)nc2nc([C@H](Cc3cc(F)cc(F)c3)NC(=O)Cn3nc(C(F)F)c4c3C(F)(F)[C@@H]3C[C@H]43)n(-c3ccc(Cl)c4c(NS(C)(=O)=O)nn([C@H](C)CN5C[C@@H](C)O[C@@H](C)C5)c34)c(=O)c12 (atropisomer, axis not shown; (P)) [Example 729, N-[(1S)-1-[(3P)-3-{4-chloro-1-[(2R)-1-[(2R,6S)-2,6-dimethylmorpholin-4-yl]propan-2-yl]-3-methanesulfonamido-1H-indazol-7-yl}-5-methyl-4-oxo-7-(1,4,4-trifluorocyclohexyl)-3H,4H-pyrido[2,3-d]pyrimidin-2-yl]-2-(3,5-difluorophenyl)ethyl]-2-[(2S,4R)-9-(difluoromethyl)-5,5-difluoro-7,8-diazatricyclo[4.3.0.0^2,^4]nona-1(6),8-dien-7-yl]acetamide]
- CC50 at 4 days [1]: > 20 nM
- pEC50 [2]: 10.64

Structure (SMILES): Cc1cc(C2CCC(F)(F)CC2)nc2nc([C@H](Cc3cc(F)cc(F)c3)NC(=O)Cn3nc(C(F)F)c4c3C(F)(F)[C@@H]3C[C@H]43)n(-c3ccc(Cl)c4c(NS(C)(=O)=O)nn([C@H](C)CN5CC(C)(C)OC(C)(C)C5)c34)c(=O)c12 (atropisomer, axis not shown; (P)) [Example 733, N-[(1S)-1-[(3P)-3-{4-chloro-3-methanesulfonamido-1-[(2R)-1-(2,2,6,6-tetramethylmorpholin-4-yl)propan-2-yl]-1H-indazol-7-yl}-7-(4,4-difluorocyclohexyl)-5-methyl-4-oxo-3H,4H-pyrido[2,3-d]pyrimidin-2-yl]-2-(3,5-difluorophenyl)ethyl]-2-[(2S,4R)-9-(difluoromethyl)-5,5-difluoro-7,8-diazatricyclo[4.3.0.0^2,^4]nona-1(6),8-dien-7-yl]acetamide]
- CC50 at 4 days [1]: > 20 nM
- pEC50 [2]: 10.43

Structure (SMILES): C[C@@H](CN1C[C@H](F)C[C@H](F)C1)n1nc(NS(C)(=O)=O)c2c(Cl)ccc(-n3c([C@H](Cc4cc(F)cc(F)c4)NC(=O)Cn4nc(C(F)F)c5c4C(F)(F)[C@@H]4C[C@H]54)nc4nc(C5CCC(F)(F)CC5)cc(C5CC5)c4c3=O)c21 (atropisomer, axis not shown; (P)) [Example 735, N-[(1S)-1-[(3P)-3-{4-chloro-1-[(2S)-1-[(3R,5S)-3,5-difluoropiperidin-1-yl]propan-2-yl]-3-methanesulfonamido-1H-indazol-7-yl}-5-cyclopropyl-7-(4,4-difluorocyclohexyl)-4-oxo-3H, 4H-pyrido[2,3-d]pyrimidin-2-yl]-2-(3,5-difluorophenyl)ethyl]-2-[(2S,4R)-9-(difluoromethyl)-5,5-difluoro-7,8-diazatricyclo[4.3.0.0^2,^4]nona-1(6),8-dien-7-yl]acetamide]
- CC50 at 4 days [1]: > 20 nM
- pEC50 [2]: 10.74

Structure (SMILES): Cc1cc(C2(F)CCC(F)(F)CC2)nc2nc([C@H](Cc3cc(F)cc(F)c3)NC(=O)Cn3nc(C(F)F)c4c3C(F)(F)[C@@H]3C[C@H]43)n(-c3ccc(Cl)c4c(NS(C)(=O)=O)nn(CCc5cccnc5)c34)c(=O)c12 (atropisomer, axis not shown; (P)) [Example 740, N-[(1S)-1-[(3P)-3-{4-chloro-3-methanesulfonamido-1-[2-(pyridin-3-yl)ethyl]-1H-indazol-7-yl}-5-methyl-4-oxo-7-(1,4,4-trifluorocyclohexyl)-3H,4H-pyrido[2,3-d]pyrimidin-2-yl]-2-(3,5-difluorophenyl)ethyl]-2-[(2S,4R)-9-(difluoromethyl)-5,5-difluoro-7,8-diazatricyclo[4.3.0.0^2,^4]nona-1(6),8-dien-7-yl]acetamide]
- CC50 at 4 days [1]: > 20 nM
- pEC50 [2]: 10.68

Structure (SMILES): Cc1cc(C2CCC(F)(F)CC2)nc2nc([C@H](Cc3cc(F)cc(F)c3)NC(=O)Cn3nc(C(F)F)c4c3C(F)(F)[C@@H]3C[C@H]43)n(-c3ccc(Cl)c4c(NS(C)(=O)=O)nn([C@@H](C)CN5CC(C)(C)OC(C)(C)C5)c34)c(=O)c12 (atropisomer, axis not shown; (P)) [Example 742, N-[(1S)-1-[(3P)-3-{4-chloro-3-methanesulfonamido-1-[(2S)-1-(2,2,6,6-tetramethylmorpholin-4-yl)propan-2-yl]-1H-indazol-7-yl}-7-(4,4-difluorocyclohexyl)-5-methyl-4-oxo-3H,4H-pyrido[2,3-d]pyrimidin-2-yl]-2-(3,5-difluorophenyl)ethyl]-2-[(2S,4R)-9-(difluoromethyl)-5,5-difluoro-7,8-diazatricyclo[4.3.0.0^2,^4]nona-1(6),8-dien-7-yl]acetamide]
- CC50 at 4 days [1]: > 20 nM
- pEC50 [2]: 10.59

Structure (SMILES): Cc1cc(C2(F)CCC(F)(F)CC2)nc2nc([C@H](Cc3cc(F)cc(F)c3)NC(=O)Cn3nc(C(F)F)c4c3C(F)(F)[C@@H]3C[C@H]43)n(-c3ccc(Cl)c4c(NS(C)(=O)=O)nn([C@H](C)C(=O)N5C[C@@H](C)O[C@@H](C)C5)c34)c(=O)c12 (atropisomer, axis not shown; (P)) [Example 743, N-[(1S)-1-[(3P)-3-{4-chloro-1-[(2R)-1-[(2R,6S)-2,6-dimethylmorpholin-4-yl]-1-oxopropan-2-yl]-3-methanesulfonamido-1H-indazol-7-yl}-5-methyl-4-oxo-7-(1,4,4-trifluorocyclohexyl)-3H,4H-pyrido[2,3-d]pyrimidin-2-yl]-2-(3,5-difluorophenyl)ethyl]-2-[(2S,4R)-9-(difluoromethyl)-5,5-difluoro-7,8-diazatricyclo[4.3.0.0^2,^4]nona-1(6),8-dien-7-yl]acetamide]
- CC50 at 4 days [1]: > 20 nM
- pEC50 [2]: 10.80

Structure (SMILES): CC(=O)c1cc(C2CCC(F)(F)CC2)nc2nc([C@H](Cc3cc(F)cc(F)c3)NC(=O)Cn3nc(C(F)F)c4c3C(F)(F)[C@@H]3C[C@H]43)n(-c3ccc(Cl)c4c(NS(C)(=O)=O)nn(CCN5CCC(F)(F)CC5)c34)c(=O)c12 (atropisomer, axis not shown; (P)) [Example 746, N-[(1S)-1-[(3P)-5-acetyl-3-{4-chloro-1-[2-(4,4-difluoropiperidin-1-yl)ethyl]-3-methanesulfonamido-1H-indazol-7-yl}-7-(4,4-difluorocyclohexyl)-4-oxo-3H,4H-pyrido[2,3-d]pyrimidin-2-yl]-2-(3,5-difluorophenyl)ethyl]-2-[(2S,4R)-9-(difluoromethyl)-5,5-difluoro-7,8-diazatricyclo[4.3.0.0^2,4]nona-1(6),8-dien-7-yl]acetamide]
- CC50 at 4 days [1]: > 20 nM
- pEC50 [2]: 11.10
